# Test results taken from patent US20240358829A1, “Lymphocyte Population and Methods for Producing Same” (AVM Biotechnology, LLC, priority 2021, published 2024).
# Several values for one entry are separate records, joined by “and”; a condition that tells them apart may be missing. Identical values can stand only once.
# Tested on: CD56+γδTCR+iTCR+ cells
# Assay: AVM0703 R/R NHL clinical trial, whole blood flow cytometry
# Assay type: in vivo, human
# Experimental: FIG. 15. 101-001 size (FSC) and complexity (SSC) scattergram of AVM_NKT cells. […] Blood was stained with panel antibodies based for 15 minutes in the dark at Room Temperature. RBC lysis was performed by addition of 1 mL of 1×BD FACS Lysing Solution (BD Bioscience), diluted with MilliQ water, for 10 minutes in the dark at Room Temperature. Samples were washed with 2 mL 1×DPBS CMF (Gibco) and resuspended in 300 μL of 1×DPBS CMF before 5 μL of 7AAD (Biolegend) was added to each sample for live/dead cell determination and incubated for 5 minutes in the dark at Room Temperature. 250 μL of sample were taken up for acquisition on Macsquant 16 Flow Cytometer (Miltenyi, Serial #40150). Live white blood cells were gated for CD56+ cells co-expressing gamma delta TCR and the invariant TCR and labelled red in the forward versus side scattergram. Red-labelled cells fall within the forward versus side scattergrams where large granular cells such as neutrophils and large granular lymphocytes are known to fall.
# For characterisation of the induced/mobilized population of NKT-like cells (AVM-NKT) in humans, whole blood from human subjects was drawn in K2 EDTA Vacutainer tube (367862, BD Biosciences, NJ) and shipped to AVM Biotechnology at room temperature. 100 μl of whole blood was stained with the following antibodies: CD45 AF700 (2D1), CD16 APC (3G8), INKT PECy7 (6B11), CD8 PE (SK1), CD14 FITC (M5E2), CD56 BV650 (5.1H11), γδTCR BV510 (B1), CD19 BV421 (HIB19), NKp44 APC (P44-8) (all from Biolegend, San Diego, CA) and CD3 APCVio770 (BW264/56), (Miltenyi Biotec, San Jose, CA), 7-AAD, (Biolegend, San Diego CA) was included to distinguish the live and dead cells.
# [1] = patient 108-001, 1st 9 mg/kg infusion, 1 hour
# [2] = patient 108-001, 1st 9 mg/kg infusion, Day 3
# [3] = patient 108-001, 1st 9 mg/kg infusion, Day 14
# [4] = patient 108-001, 2nd 9 mg/kg infusion, 1 hour
# [5] = patient 108-001, 2nd 9 mg/kg infusion, Day 3
# [6] = patient 108-001, 2nd 9 mg/kg infusion, Day 14
# [7] = patient 108-002, 18 mg/kg, 1 hour post-infusion
# [8] = patient 108-002, 18 mg/kg, Day 3
# [9] = patient 108-002, 18 mg/kg, Day 14
# [10] = patient 108-003, 12 mg/kg, 1 hour post-infusion
# [11] = patient 108-003, 12 mg/kg, Day 3
# [12] = patient 108-003, 12 mg/kg, Day 14
structure (smiles),measurement,setting,value
"C[C@@H]1C[C@H]2[C@@H]3CCC4=CC(=O)C=C[C@]4(C)[C@@]3(F)[C@@H](O)C[C@]2(C)[C@@]1(O)C(=O)COP(=O)(O)O [AVM0703, dexamethasone sodium phosphate]",CD45 (as % of CD56+ γδTCR+ iTCR+ cells),[1],96%
same,CD56+ γδTCR+ iTCR+ % of total WBCs,[1],0.72%
same,CD56+ γδTCR+ iTCR+ cells/uL,[1],112 cells/uL
same,CD3 (as % of CD56+ γδTCR+ iTCR+ cells),[2],24%
same,CD8hi (as % of CD56+ γδTCR+ iTCR+ cells),[2],2%
same,CD8med (as % of CD56+ γδTCR+ iTCR+ cells),[2],16%
same,CD14+ (as % of CD56+ γδTCR+ iTCR+ cells),[2],50%
same,CD16 (as % of CD56+ γδTCR+ iTCR+ cells),[2],80%
same,CD19+ (as % of CD56+ γδTCR+ iTCR+ cells),[2],24%
same,CD45 (as % of CD56+ γδTCR+ iTCR+ cells),[2],98%
same,CD56+ γδTCR+ iTCR+ % of total WBCs,[2],0.22%
same,CD56+ γδTCR+ iTCR+ cells/uL,[2],36 cells/uL and 36.0 cells/uL
same,CD56+ γδTCR+ iTCR+ % of total WBCs,[3],0.06%
same,CD56+ γδTCR+ iTCR+ cells/uL,[3],3 cells/uL
same,CD3 (as % of CD56+ γδTCR+ iTCR+ cells),[4],23%
same,CD8hi (as % of CD56+ γδTCR+ iTCR+ cells),[4],2.2%
same,CD8med (as % of CD56+ γδTCR+ iTCR+ cells),[4],4.4%
same,CD14+ (as % of CD56+ γδTCR+ iTCR+ cells),[4],81%
same,CD16 (as % of CD56+ γδTCR+ iTCR+ cells),[4],89%
same,CD19+ (as % of CD56+ γδTCR+ iTCR+ cells),[4],26%
same,CD45 (as % of CD56+ γδTCR+ iTCR+ cells),[4],13%
same,CD56+ γδTCR+ iTCR+ % of total WBCs,[4],0.84%
same,CD56+ γδTCR+ iTCR+ cells/uL,[4],26 cells/uL
same,CD3 (as % of CD56+ γδTCR+ iTCR+ cells),[5],49%
same,CD8hi (as % of CD56+ γδTCR+ iTCR+ cells),[5],1%
same,CD8med (as % of CD56+ γδTCR+ iTCR+ cells),[5],55%
same,CD14+ (as % of CD56+ γδTCR+ iTCR+ cells),[5],35%
same,CD16 (as % of CD56+ γδTCR+ iTCR+ cells),[5],58%
same,CD19+ (as % of CD56+ γδTCR+ iTCR+ cells),[5],17%
same,CD45 (as % of CD56+ γδTCR+ iTCR+ cells),[5],11%
same,CD56+ γδTCR+ iTCR+ % of total WBCs,[5],0.19%
same,CD56+ γδTCR+ iTCR+ cells/uL,[5],10.2 cells/uL
same,CD3 (as % of CD56+ γδTCR+ iTCR+ cells),[6],22%
same,CD8hi (as % of CD56+ γδTCR+ iTCR+ cells),[6],4%
same,CD8med (as % of CD56+ γδTCR+ iTCR+ cells),[6],20%
same,CD14+ (as % of CD56+ γδTCR+ iTCR+ cells),[6],76%
same,CD16 (as % of CD56+ γδTCR+ iTCR+ cells),[6],82%
same,CD19+ (as % of CD56+ γδTCR+ iTCR+ cells),[6],28%
same,CD45 (as % of CD56+ γδTCR+ iTCR+ cells),[6],84%
same,CD56+ γδTCR+ iTCR+ % of total WBCs,[6],0.43%
same,CD56+ γδTCR+ iTCR+ cells/uL,[6],20 cells/uL
same,AVM_NKT CD56+γδTCR+iTCR+ cells in the blood,"patient 108-001, after the third 9 mg/kg infusion",not evident in the blood
same,CD56+gdTCR+ inv TCR+ cells induced,"patient 108-002, 18 mg/kg",YES
same,CD3 (as % of CD56+ γδTCR+ iTCR+ cells),[7],83.2%
same,CD8hi (as % of CD56+ γδTCR+ iTCR+ cells),[7],88%
same,CD8med (as % of CD56+ γδTCR+ iTCR+ cells),[7],12.3%
same,CD14+ (as % of CD56+ γδTCR+ iTCR+ cells),[7],79%
same,CD16 (as % of CD56+ γδTCR+ iTCR+ cells),[7],87%
same,CD19+ (as % of CD56+ γδTCR+ iTCR+ cells),[7],98%
same,CD45 (as % of CD56+ γδTCR+ iTCR+ cells),[7],100%
same,CD56+ γδTCR+ iTCR+ cells/uL,[7],49.5 cells/uL
same,CD56+ γδTCR+ iTCR+ % of total WBCs,[8],0.04%
same,CD56+ γδTCR+ iTCR+ cells/uL,[8],2.3 cells/uL
same,CD3 (as % of CD56+ γδTCR+ iTCR+ cells),[9],72%
same,CD8hi (as % of CD56+ γδTCR+ iTCR+ cells),[9],73%
same,CD8med (as % of CD56+ γδTCR+ iTCR+ cells),[9],16.5%
same,CD14+ (as % of CD56+ γδTCR+ iTCR+ cells),[9],80%
same,CD16 (as % of CD56+ γδTCR+ iTCR+ cells),[9],41.2%
same,CD19+ (as % of CD56+ γδTCR+ iTCR+ cells),[9],80%
same,CD45 (as % of CD56+ γδTCR+ iTCR+ cells),[9],84%
same,CD56+ γδTCR+ iTCR+ % of total WBCs,[9],0.25%
same,CD56+ γδTCR+ iTCR+ cells/uL,[9],9.7 cells/uL
same,CD56+gdTCR+ inv TCR+ cells induced,"patient 108-003, 12 mg/kg",YES
same,CD3 (as % of CD56+ γδTCR+ iTCR+ cells),[10],14%
same,CD8hi (as % of CD56+ γδTCR+ iTCR+ cells),[10],1.7%
same,CD8med (as % of CD56+ γδTCR+ iTCR+ cells),[10],9%
same,CD14+ (as % of CD56+ γδTCR+ iTCR+ cells),[10],43%
same,CD16 (as % of CD56+ γδTCR+ iTCR+ cells),[10],85%
same,CD19+ (as % of CD56+ γδTCR+ iTCR+ cells),[10],40%
same,CD45 (as % of CD56+ γδTCR+ iTCR+ cells),[10],95%
same,CD56+ γδTCR+ iTCR+ % of total WBCs,[10],0.4%
same,CD56+ γδTCR+ iTCR+ cells/uL,[10],31.8 cells/uL
same,CD3 (as % of CD56+ γδTCR+ iTCR+ cells),[11],80%
same,CD8hi (as % of CD56+ γδTCR+ iTCR+ cells),[11],12.6%
same,CD8med (as % of CD56+ γδTCR+ iTCR+ cells),[11],45%
same,CD14+ (as % of CD56+ γδTCR+ iTCR+ cells),[11],68%
same,CD16 (as % of CD56+ γδTCR+ iTCR+ cells),[11],75%
same,CD19+ (as % of CD56+ γδTCR+ iTCR+ cells),[11],11.5%
same,CD45 (as % of CD56+ γδTCR+ iTCR+ cells),[11],67%
same,CD56+ γδTCR+ iTCR+ % of total WBCs,[11],0.6%
same,CD56+ γδTCR+ iTCR+ cells/uL,[11],58.4 cells/uL
same,CD3 (as % of CD56+ γδTCR+ iTCR+ cells),[12],90%
same,CD8hi (as % of CD56+ γδTCR+ iTCR+ cells),[12],8%
same,CD8med (as % of CD56+ γδTCR+ iTCR+ cells),[12],84%
same,CD14+ (as % of CD56+ γδTCR+ iTCR+ cells),[12],87%
same,CD16 (as % of CD56+ γδTCR+ iTCR+ cells),[12],89%
same,CD19+ (as % of CD56+ γδTCR+ iTCR+ cells),[12],12.4%
same,CD45 (as % of CD56+ γδTCR+ iTCR+ cells),[12],94%
same,CD56+ γδTCR+ iTCR+ % of total WBCs,[12],0.83%
same,CD56+ γδTCR+ iTCR+ cells/uL,[12],94 cells/uL
same,CD56+γδTCR+invTCR+ cells in blood,"patient 108-004, 12 mg/kg, one hour, 3 days or 14 days after infusion (pre-infusion 0.09%, 4.6 cells/uL)",no increase
